Values of other authors in patent US8349353B2, “Controlled release cytotoxic agent compositions and methods for the treatment of otic disorders” (Otonomy, Inc., priority 2008, dated 2013).

Tested on: V2-R
Conditions: infusion into the scala tympani

Cc1ccccc1C(=O)Nc1ccc(C(=O)N2CCCC(N(C)C)c3ccccc32)cc1 (stereo not shown) [OPC-31260]
Meniere's disease symptoms: marked reduction of Meniere's disease symptoms
